System: Rattus norvegicus
Settings: short-term, duration: 28 days, oral, gavage, Sprague-Dawley

Q: For `O=S(=O)(O)C(F)(F)C(F)(F)C(F)(F)C(F)(F)C(F)(F)C(F)(F)C(F)(F)C(F)(F)F` [Perfluorooctanesulfonic acid], which LOEL (F, Nonneoplastic effects_Liver - Hepatocyte, hypertrophy) is on record?
A: 1.25 mg/kg-day

Q: What about the NOEL (F, Nonneoplastic effects_Liver - Hepatocyte, vacuolization cytoplasmic) of the same molecule?
A: 5 mg/kg-day

Q: What about the NOEL (F, Nonneoplastic effects_Liver - Necrosis) of the same molecule?
A: 5 mg/kg-day

Q: And the NOEL (F, Nonneoplastic effects_Nose - Olfactory epithelium, degeneration)?
A: 5 mg/kg-day

Q: What about the NOEL (F, Nonneoplastic effects_Nose - Olfactory epithelium, hyperplasia) of the same molecule?
A: 5 mg/kg-day

Q: What about the NOEL (F, Nonneoplastic effects_Nose - Olfactory epithelium, inflammation, suppurative) of the same molecule?
A: 5 mg/kg-day

Q: What about the NOEL (F, Nonneoplastic effects_Nose - Olfactory epithelium, necrosis) of the same molecule?
A: 5 mg/kg-day

Q: What about the LOEL (F, Nonneoplastic effects_Spleen - Extramedullary hematopoiesis, decreased) of the same molecule?
A: 1.25 mg/kg-day

Q: And the NOEL (F, Nonneoplastic effects_Stomach, forestomach - Epithelium, hyperplasia)?
A: 5 mg/kg-day

Q: And the NOEL (F, Nonneoplastic effects_Thymus - Atrophy)?
A: 5 mg/kg-day

Q: And the LOEL (F, Organ weights_Heart - Absolute)?
A: 5 mg/kg-day

Q: What about the LOEL (F, Organ weights_Heart - Relative) of the same molecule?
A: 5 mg/kg-day

Q: And the LOEL (F, Organ weights_Liver - Absolute)?
A: 0.312 mg/kg-day

Q: What about the LOEL (F, Organ weights_Liver - Relative) of the same molecule?
A: 0.312 mg/kg-day

Q: What about the NOEL (F, Organ weights_Lung - Absolute) of the same molecule?
A: 5 mg/kg-day

Q: And the LOEL (F, Organ weights_Lung - Relative)?
A: 1.25 mg/kg-day

Q: And the NOEL (F, Organ weights_R. adrenal gland - Absolute)?
A: 5 mg/kg-day

Q: And the NOEL (F, Organ weights_R. adrenal gland - Relative)?
A: 5 mg/kg-day

Q: And the NOEL (F, Organ weights_R. kidney - Absolute)?
A: 5 mg/kg-day

Q: What about the NOEL (F, Organ weights_R. kidney - Relative) of the same molecule?
A: 5 mg/kg-day

Q: And the NOEL (F, Organ weights_Spleen - Absolute)?
A: 5 mg/kg-day

Q: What about the NOEL (F, Organ weights_Spleen - Relative) of the same molecule?
A: 5 mg/kg-day

Q: What about the LOEL (F, Organ weights_Thymus - Absolute) of the same molecule?
A: 1.25 mg/kg-day

Q: And the NOEL (F, Organ weights_Thymus - Relative)?
A: 5 mg/kg-day

Q: What about the NOEL (F, Survival rates) of the same molecule?
A: 5 mg/kg-day

Q: And the LOEL (M, Clinical chemistry_Alanine aminotransferase)?
A: 0.625 mg/kg-day

Q: And the LOEL (M, Clinical chemistry_Albumin)?
A: 5 mg/kg-day

Q: What about the LOEL (M, Clinical chemistry_Albumin/globulin ratio) of the same molecule?
A: 5 mg/kg-day

Q: And the LOEL (M, Clinical chemistry_Alkaline phosphatase)?
A: 0.625 mg/kg-day

Q: What about the LOEL (M, Clinical chemistry_Aspartate aminotransferase) of the same molecule?
A: 0.625 mg/kg-day

Q: And the LOEL (M, Clinical chemistry_Cholesterol)?
A: 0.312 mg/kg-day

Q: What about the LOEL (M, Clinical chemistry_Direct bilirubin) of the same molecule?
A: 5 mg/kg-day

Q: And the LOEL (M, Clinical chemistry_Free thyroxine)?
A: 0.312 mg/kg-day

Q: What about the LOEL (M, Clinical chemistry_Globulin) of the same molecule?
A: 5 mg/kg-day

Q: And the NOEL (M, Clinical chemistry_Sorbitol dehydrogenase)?
A: 5 mg/kg-day

Q: And the NOEL (M, Clinical chemistry_Testosterone)?
A: 5 mg/kg-day

Q: What about the NOEL (M, Clinical chemistry_Thyroid stimulating hormone) of the same molecule?
A: 5 mg/kg-day

Q: And the LOEL (M, Clinical chemistry_Total bile acids)?
A: 5 mg/kg-day

Q: And the NOEL (M, Clinical chemistry_Total bilirubin)?
A: 5 mg/kg-day

Q: And the NOEL (M, Clinical chemistry_Total protein)?
A: 5 mg/kg-day

Q: What about the LOEL (M, Clinical chemistry_Total thyroxine) of the same molecule?
A: 0.312 mg/kg-day

Q: And the LOEL (M, Clinical chemistry_Total triiodothyronine)?
A: 0.625 mg/kg-day

Q: And the LOEL (M, Clinical chemistry_Triglycerides)?
A: 5 mg/kg-day

Q: And the LOEL (M, Gene expression_Acox1)?
A: 1.25 mg/kg-day

Q: What about the LOEL (M, Gene expression_Acyl-CoA oxidase) of the same molecule?
A: 2.5 mg/kg-day

Q: And the LOEL (M, Gene expression_Cyp2b1)?
A: 0.312 mg/kg-day

Q: What about the LOEL (M, Gene expression_Cyp2b2) of the same molecule?
A: 0.312 mg/kg-day

Q: And the LOEL (M, Gene expression_Cyp4a1)?
A: 0.312 mg/kg-day

Q: What about the NOEL (M, Hematology_Erythrocytes) of the same molecule?
A: 5 mg/kg-day

Q: And the NOEL (M, Hematology_Hematocrit)?
A: 5 mg/kg-day

Q: What about the NOEL (M, Hematology_Hemoglobin) of the same molecule?
A: 5 mg/kg-day

Q: What about the LOEL (M, Hematology_Leukocytes) of the same molecule?
A: 5 mg/kg-day

Q: And the LOEL (M, Hematology_Reticulocytes)?
A: 2.5 mg/kg-day

Q: And the LOEL (M, Hematology_S. neutrophils)?
A: 5 mg/kg-day

Q: What about the LOEL (M, Nonneoplastic effects_Bone marrow - Hypocellularity) of the same molecule?
A: 1.25 mg/kg-day

Q: And the NOEL (M, Nonneoplastic effects_Kidney - Papilla, necrosis)?
A: 5 mg/kg-day

Q: And the NOEL (M, Nonneoplastic effects_Liver - Hepatocyte, cytoplasmic alteration)?
A: 5 mg/kg-day

Q: What about the LOEL (M, Nonneoplastic effects_Liver - Hepatocyte, hypertrophy) of the same molecule?
A: 1.25 mg/kg-day

Q: What about the LOEL (M, Nonneoplastic effects_Liver - Hepatocyte, vacuolization cytoplasmic) of the same molecule?
A: 2.5 mg/kg-day

Q: What about the NOEL (M, Nonneoplastic effects_Liver - Necrosis) of the same molecule?
A: 5 mg/kg-day

Q: And the NOEL (M, Nonneoplastic effects_Nose - Olfactory epithelium, degeneration)?
A: 5 mg/kg-day

Q: What about the NOEL (M, Nonneoplastic effects_Nose - Olfactory epithelium, hyperplasia) of the same molecule?
A: 5 mg/kg-day

Q: And the NOEL (M, Nonneoplastic effects_Nose - Olfactory epithelium, inflammation, suppurative)?
A: 5 mg/kg-day

Q: What about the NOEL (M, Nonneoplastic effects_Nose - Olfactory epithelium, necrosis) of the same molecule?
A: 5 mg/kg-day

Q: What about the LOEL (M, Nonneoplastic effects_Spleen - Extramedullary hematopoiesis, decreased) of the same molecule?
A: 1.25 mg/kg-day

Q: What about the NOEL (M, Nonneoplastic effects_Stomach, forestomach - Epithelium, hyperplasia) of the same molecule?
A: 5 mg/kg-day

Q: What about the NOEL (M, Nonneoplastic effects_Thymus - Atrophy) of the same molecule?
A: 5 mg/kg-day

Q: And the LOEL (M, Organ weights_Heart - Absolute)?
A: 5 mg/kg-day

Q: What about the NOEL (M, Organ weights_Heart - Relative) of the same molecule?
A: 5 mg/kg-day

Q: What about the LOEL (M, Organ weights_Liver - Absolute) of the same molecule?
A: 0.312 mg/kg-day

Q: And the LOEL (M, Organ weights_Liver - Relative)?
A: 0.312 mg/kg-day

Q: What about the NOEL (M, Organ weights_Lung - Absolute) of the same molecule?
A: 5 mg/kg-day

Q: And the NOEL (M, Organ weights_Lung - Relative)?
A: 5 mg/kg-day

Q: What about the LOEL (M, Organ weights_R. adrenal gland - Absolute) of the same molecule?
A: 1.25 mg/kg-day

Q: What about the NOEL (M, Organ weights_R. adrenal gland - Relative) of the same molecule?
A: 5 mg/kg-day

Q: What about the NOEL (M, Organ weights_R. kidney - Absolute) of the same molecule?
A: 5 mg/kg-day

Q: And the NOEL (M, Organ weights_R. kidney - Relative)?
A: 5 mg/kg-day

Q: And the LOEL (M, Organ weights_Spleen - Absolute)?
A: 1.25 mg/kg-day

Q: And the NOEL (M, Organ weights_Spleen - Relative)?
A: 5 mg/kg-day

Q: And the LOEL (M, Organ weights_Thymus - Absolute)?
A: 5 mg/kg-day

Q: What about the LOEL (M, Organ weights_Thymus - Relative) of the same molecule?
A: 5 mg/kg-day

Q: What about the NOEL (M, Reproductive toxicity_Altered sperm parameters) of the same molecule?
A: 5 mg/kg-day

Q: What about the NOEL (M, Survival rates) of the same molecule?
A: 5 mg/kg-day
